Source: PubChem BioAssay (NCI)
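At the GI50, growth is halved. TGI is the concentration that stops growth completely.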

Experiments:
Experiment in all cases: DTP human tumour cell line panel, 384-well format
CAKI-1 renal = test system: CAKI-1 renal
OVCAR-5 ovarian = test system: OVCAR-5 ovarian
SK-OV-3 ovarian = test system: SK-OV-3 ovarian
NCI-H226 lung = test system: NCI-H226 lung
CCRF-CEM leukemia = test system: CCRF-CEM leukemia
SK-MEL-5 melanoma = test system: SK-MEL-5 melanoma
MDA-MB-231 breast = test system: MDA-MB-231 breast
M14 melanoma = test system: M14 melanoma
SF-295 CNS = test system: SF-295 CNS
HCT-15 colon = test system: HCT-15 colon
OVCAR-8 ovarian = test system: OVCAR-8 ovarian
A498 renal = test system: A498 renal
OVCAR-3 ovarian = test system: OVCAR-3 ovarian
UACC-62 melanoma = test system: UACC-62 melanoma
HOP-92 NSCLC = test system: HOP-92 NSCLC
SF-539 CNS = test system: SF-539 CNS
BT-549 breast = test system: BT-549 breast
HS 578T breast = test system: HS 578T breast
KM12 colon = test system: KM12 colon
A549 NSCLC = test system: A549 NSCLC
PC-3 prostate = test system: PC-3 prostate
HOP-62 NSCLC = test system: HOP-62 NSCLC
EKVX NSCLC = test system: EKVX NSCLC
UO-31 renal = test system: UO-31 renal
SF-268 CNS = test system: SF-268 CNS
MCF7 breast = test system: MCF7 breast
NCI-H522 lung = test system: NCI-H522 lung
LOX IMVI melanoma = test system: LOX IMVI melanoma
SK-MEL-28 melanoma = test system: SK-MEL-28 melanoma
TK-10 renal = test system: TK-10 renal
MALME-3M melanoma = test system: MALME-3M melanoma
UACC-257 melanoma = test system: UACC-257 melanoma
786-0 renal = test system: 786-0 renal
SNB-75 CNS = test system: SNB-75 CNS
MOLT-4 leukemia = test system: MOLT-4 leukemia
HL-60(TB) leukemia = test system: HL-60(TB) leukemia
SW-620 colon = test system: SW-620 colon
MDA-MB-468 breast = test system: MDA-MB-468 breast
SR leukemia = test system: SR leukemia
NCI-H322M lung = test system: NCI-H322M lung
COLO 205 colon = test system: COLO 205 colon
MDA-MB-435 melanoma = test system: MDA-MB-435 melanoma
NCI-H460 NSCLC = test system: NCI-H460 NSCLC
SNB-19 CNS = test system: SNB-19 CNS
T-47D breast = test system: T-47D breast
HT29 colon = test system: HT29 colon
SN12C renal = test system: SN12C renal
RPMI-8226 leukemia = test system: RPMI-8226 leukemia
NCI/ADR-RES ovarian = test system: NCI/ADR-RES ovarian
RXF 393 renal = test system: RXF 393 renal
OVCAR-4 ovarian = test system: OVCAR-4 ovarian
IGROV1 ovarian = test system: IGROV1 ovarian
DU-145 prostate = test system: DU-145 prostate
HCC-2998 colon = test system: HCC-2998 colon
ACHN renal = test system: ACHN renal
NCI-H23 lung = test system: NCI-H23 lung
K-562 leukemia = test system: K-562 leukemia
U251 glioblastoma = test system: U251 glioblastoma

## O=C(Nc1ccc(OC(F)(F)F)cc1)c1sccc1NCc1ccnc2ccccc12
CAKI-1 renal
  GI50: 3.2 µM
  TGI: 14.8 µM
OVCAR-5 ovarian
  GI50: 8.44 µM
  TGI: 43.8 µM
SK-OV-3 ovarian
  GI50: 2.97 µM
  TGI: 9.49 µM
NCI-H226 lung
  GI50: 4.4 µM
  TGI: 19 µM
CCRF-CEM leukemia
  GI50: 2.03 µM
  TGI: 4.44 µM
SK-MEL-5 melanoma
  GI50: 1.66 µM
  TGI: 3.41 µM
MDA-MB-231 breast
  GI50: 1.9 µM
  TGI: 15.2 µM
M14 melanoma
  GI50: 3.56 µM
  TGI: 14.3 µM
SF-295 CNS
  GI50: 3.9 µM
  TGI: 19 µM
HCT-15 colon
  GI50: 3.55 µM
  TGI: 10.9 µM
OVCAR-8 ovarian
  GI50: 3.99 µM
  TGI: 16.2 µM
A498 renal
  GI50: 2.57 µM
  TGI: 12.8 µM
OVCAR-3 ovarian
  GI50: 5.25 µM
  TGI: 19.6 µM
UACC-62 melanoma
  GI50: 2.76 µM
  TGI: 14.3 µM
HOP-92 NSCLC
  GI50: 3.99 µM
  TGI: 15.7 µM
SF-539 CNS
  GI50: 5.11 µM
  TGI: 19.8 µM
BT-549 breast
  GI50: 5.78 µM
  TGI: 17.7 µM
HS 578T breast
  GI50: 2.66 µM
  TGI: 8.81 µM
KM12 colon
  GI50: 3.74 µM
  TGI: 15.9 µM
A549 NSCLC
  GI50: 4.5 µM
  TGI: 52.5 µM
PC-3 prostate
  GI50: 4.56 µM
  TGI: 25.7 µM
HOP-62 NSCLC
  GI50: 8.26 µM
  TGI: 71.6 µM
EKVX NSCLC
  GI50: 3.43 µM
  TGI: 19.9 µM
UO-31 renal
  GI50: 8.23 µM
  TGI: > 100 µM
SF-268 CNS
  GI50: 6.24 µM
  TGI: 32 µM
MCF7 breast
  GI50: 3.24 µM
  TGI: 15.9 µM
NCI-H522 lung
  GI50: 2.96 µM
  TGI: 11.6 µM
LOX IMVI melanoma
  GI50: 3.48 µM
  TGI: 10.6 µM
SK-MEL-28 melanoma
  GI50: 5.71 µM
  TGI: 35.2 µM
TK-10 renal
  GI50: 11 µM
  TGI: 65 µM
MALME-3M melanoma
  GI50: 1.73 µM
  TGI: 8.96 µM
UACC-257 melanoma
  GI50: 3.51 µM
  TGI: 13.6 µM
786-0 renal
  GI50: 4.38 µM
  TGI: 15.6 µM
SNB-75 CNS
  GI50: 5.09 µM
  TGI: 51.6 µM
MOLT-4 leukemia
  GI50: 1.93 µM
  TGI: 3.56 µM
HL-60(TB) leukemia
  GI50: 1.69 µM
  TGI: 3.17 µM
SW-620 colon
  GI50: 6.31 µM
  TGI: 23 µM
MDA-MB-468 breast
  GI50: 2.06 µM
  TGI: 5.16 µM
SR leukemia
  GI50: 1.81 µM
  TGI: 4.06 µM
NCI-H322M lung
  GI50: 4.43 µM
  TGI: 40.4 µM
COLO 205 colon
  GI50: 4.4 µM
  TGI: 22.8 µM
MDA-MB-435 melanoma
  GI50: 4.65 µM
  TGI: 21.7 µM
NCI-H460 NSCLC
  GI50: 2.93 µM
  TGI: 10.6 µM
SNB-19 CNS
  GI50: 11.9 µM
  TGI: > 100 µM
T-47D breast
  GI50: 2.03 µM
  TGI: 6.57 µM
HT29 colon
  GI50: 4.31 µM
  TGI: 17.1 µM
SN12C renal
  GI50: 3.82 µM
  TGI: 24.8 µM
RPMI-8226 leukemia
  GI50: 2.06 µM
  TGI: 4.59 µM
NCI/ADR-RES ovarian
  GI50: 2.8 µM
  TGI: 8.9 µM
RXF 393 renal
  GI50: 2.97 µM
  TGI: 14.3 µM
OVCAR-4 ovarian
  GI50: 4.43 µM
  TGI: 19.6 µM
IGROV1 ovarian
  GI50: 2.47 µM
  TGI: 6.72 µM
DU-145 prostate
  GI50: 4.94 µM
  TGI: > 100 µM
HCC-2998 colon
  GI50: 4.65 µM
  TGI: 12 µM
ACHN renal
  GI50: 3.39 µM
  TGI: 20.7 µM
NCI-H23 lung
  GI50: 2.39 µM
  TGI: 8.57 µM
K-562 leukemia
  GI50: 1.75 µM
  TGI: 3.66 µM
U251 glioblastoma
  GI50: 11.8 µM
  TGI: > 100 µM
